From PMC6396121 (ACS Omega, 2019) come the findings set out here.

Where only a bound is given, the exact number is not on record here.

The target in experiment [1] is NRAS^WT (Homo sapiens, UniProt P01111). Kind of experiment: MST binding to NRAS WT. The conditions noted are these: GDP and GTP-bound forms.
In experiment [2] the target is KRAS^G12D–Raf^RBD interaction (Homo sapiens, UniProt P01116, G12D). Nature of the experiment: Pull-down of GFP-KRAS G12D by GST-Raf RBD in cell lysates. The experiment is classed as biochemical. The conditions noted are these: 1 μM compound.
The target of experiment [3] is KRASWT (Homo sapiens, UniProt P01116). Kind of experiment: Intrinsic nucleotide exchange. The note with it: 1 μM compound. The experiment is classed as biochemical.
The target of experiment [4] is KRAS (Homo sapiens, UniProt P01116). Nature of the experiment: Intrinsic nucleotide. The class given is biochemical. The conditions noted are these: 1 μM compound.
Experiment [5] deals with BHK cells expressing KRAS^G12V. Kind of experiment: Western analysis of cell signaling in BHK cells expressing KRAS G12V. The class given is cell-based, hamster.
Experiment [6] relates to lung cancer cells with wild-type KRAS. Kind of experiment: CyQUANT proliferation, lung cancer cells with wild-type KRAS. The conditions noted are these: 5 μM compound, 72 h. The experiment is classed as cell-based.
The target in experiment [7] is KRAS–Raf^RBD interaction (Homo sapiens, UniProt P01116). Kind of experiment: Fluorescence polarization of KRAS binding to GST-Raf RBD. The class given is biochemical. The conditions noted are these: 1 μM compound. (In general: Polarisation of emitted light reports the rotation of a fluorescent probe.)
The target in experiment [8] is T1, KRAS and SOS (Homo sapiens, UniProt P01116). Kind of experiment: SOS-mediated nucleotide exchange. The experiment is classed as biochemical. The conditions noted are these: 1 μM compound.
The target in experiment [9] is KRAS^G12D–cRaf interaction (Homo sapiens, UniProt P01116, G12D). Nature of the experiment: FLIM-FRET of GFP-KRAS G12D with RFP-cRaf. The experiment is classed as cell-based, hamster. The note with it: 1 μM compound.
The target in experiment [10] is T2, Rap1b (Homo sapiens, UniProt P61224).
T2 sequence (P61224 1-166): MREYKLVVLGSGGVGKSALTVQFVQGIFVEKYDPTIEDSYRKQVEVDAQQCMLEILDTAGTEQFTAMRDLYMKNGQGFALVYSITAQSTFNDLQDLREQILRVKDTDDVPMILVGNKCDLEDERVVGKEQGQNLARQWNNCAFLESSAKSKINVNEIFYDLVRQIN
Kind of experiment: MST binding to control GTPase Rap1b. The note with it: control RAS-related small GTPase.

The test system of experiment [11] is oral cancer cells with or without mutant HRAS. Nature of the experiment: CyQUANT proliferation, oral cancer cells. The class given is cell-based. The conditions noted are these: 5 μM compound, 72 h.
For experiment [12], the target named is ^GDPKRAS^G12D (Homo sapiens, UniProt P01116, G12D). Kind of experiment: MST binding to GDP-bound KRAS G12D. The conditions noted are these: GDP state.
For experiment [13], the target named is KRAS^G12D and RBD interaction (Homo sapiens, UniProt P01116, G12D). Nature of the experiment: FLIM-FRET of GFP-KRAS G12D with mCherry-RBD in BHK cells. The class given is cell-based, hamster. The conditions noted are these: 1 μM compound for 2 h; ∼1.93 ns untreated, ∼2.3 ns without RBD.
Experiment [14] concerns the target T1, KRAS and SOS. Nature of the experiment: SOS-mediated nucleotide. The experiment is classed as biochemical.
The test system of experiment [15] is BHK cells expressing KRAS^G12D. Nature of the experiment: Western analysis of cell signaling in BHK cells expressing KRAS G12D. The class given is cell-based, hamster.
Experiment [16] deals with lung cancer cells harboring KRAS^G12D or KRAS^G12V. Nature of the experiment: CyQUANT proliferation, lung cancer cells with mutant KRAS. The experiment is classed as cell-based. The conditions noted are these: 5 μM compound, 72 h.
Experiment [17] addresses HRAS^G12V with Raf^RBD interaction (Homo sapiens, UniProt P01112, G12V). Kind of experiment: FLIM-FRET of GFP-HRAS G12V with mCherry-RBD in BHK cells. The class given is cell-based, hamster. The conditions noted are these: 1 μM compound.
In experiment [18] the target is ^GDPKRAS^WT (Homo sapiens, UniProt P01116). Kind of experiment: MST binding to GDP-bound KRAS WT. The note with it: GDP state.
The test system of experiment [19] is BHK cells expressing HRAS^G12V. Nature of the experiment: Western analysis of cell signaling in BHK cells expressing HRAS G12V. The class given is cell-based, hamster.
Experiment [20] addresses HRAS^WT (Homo sapiens, UniProt P01112). Nature of the experiment: MST binding to HRAS WT. The note with it: GDP and GTP-bound forms.

Sequence of NRAS^WT (P01111 1-166): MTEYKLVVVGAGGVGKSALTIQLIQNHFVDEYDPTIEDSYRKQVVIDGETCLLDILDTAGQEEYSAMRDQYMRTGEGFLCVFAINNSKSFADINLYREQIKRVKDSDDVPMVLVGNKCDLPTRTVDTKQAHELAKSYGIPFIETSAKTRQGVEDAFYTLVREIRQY

`Cc1nn2c(N3CCN(CCO)CC3)cc(-c3ccccc3)nc2c1-c1ccccc1` [Compound 11, 2-[4-(8-methyl-3,9-diphenyl-2,6,7-triazabicyclo[4.3.0]nona-2,4,7,9-tetraen-5-yl)piperazin-1-yl]ethanol]: the “binding detected by MST” value in [1], in experiment [10], in [12], in experiment [18] and in experiment [20] was “very weak or no binding” each time. Moreover, the “decrease in GFP–KRAS^G12D levels pulled down” value in experiment [2] is greater than 50%. The “maximum reduction in rate” value in [3], in experiment [4], in experiment [8] and in experiment [14] (1 μM compound) was no more than 5% throughout. In addition, the “effect on p-ERK and p-cRaf levels” value is “dose-dependently decreases” in experiment [5] and “less effect” in experiment [19] (western, ligand concentration range tested). Also, the “growth relative to DMSO control” value is 60–80% in experiment [6], 60–80% in experiment [11] and 30–35% in [16]. In experiment [7], the “fold reduction of affinity of KRAS to Raf^RBD” value is on record as roughly 13 fold. For the same molecule, the “reduction of polarization (RAS–Raf^RBD interaction)” value in [7] (at 2 μM GST–Raf^RBD) is on record as greater than 80%. In [9], the “quenching of GFP fluorescence lifetime (KRAS^G12D–cRaf interaction)” value is reported as “significantly reduced”. The GFP fluorescence lifetime in experiment [13] is on record as roughly 2.02 ns. For the same molecule, the “effect on SOS-mediated nucleotide release rate” value in experiment [14] is recorded as “only modestly decreased”. Further, the “drop in p-ERK levels” value in experiment [15] (1 μM, 3 h treatment) is “about 50%”. Further, the “reduction of p-ERK levels” value in experiment [15] (5 μM, expanded concentration range) was roughly 50%. In experiment [15] (primary western screen), the “concentrations at which p-ERK levels decreased” value was no less than 1 µM. Moreover, the “effect on p-AKT levels (AKT pathway signaling)” value in experiment [15] (western) is reported as “inhibits signaling through the AKT pathway but to a lesser extent than the MAPK pathway”. Moreover, in [17], the “effect on interaction of HRAS^G12V with Raf^RBD” value is “opposite albeit small effect”. Also, the “effect on p-AKT levels” value in [19] (western) is “no statistically significant effect”.
With `N#CC(=C(/N)Sc1ccccc1N)/C(C#N)=C(/N)Sc1ccccc1N` [Compound U0126, reference compound], in experiment [19] (10 μM), the “effect on MAPK signaling” value was “almost completely abolished”.
